Laboratory results as given in patent publication US7753966B2, “Hair dye stabilizer” (Takasago International Corporation, priority 2006, dated 2010).

Legend:
[1] = Color tone of liquid hair dye base first preparation after storage, visually observed by three panelists; format: physicochemical; settings: for Color tone: room temperature; for concentration at which a stabilization effect was shown: stored at room temperature for 2 weeks, judged from full-color photographs
Method: 40 g of a liquid hair dye base first preparation obtained by adding thioglycerol to a liquid hair dye base (Bigen Speedy Color, manufactured by Hoyu Co. Ltd.) in an amount adjusted as shown in Table 2 was placed in a 100 ml shampoo bottle and, after purging with nitrogen gas was performed, the bottle was capped and stored at room temperature.
Immediately after the passage of a given period of storage time of the shampoo bottle in which the above liquid hair dye base first preparation was placed, the color tone of the liquid hair dye base first preparation was visually observed by three panelists. The color tones in the table show the color tones of the results observed by the largest number of the panelists (the same shall apply hereinafter). Moreover, photographs of change in color tone of the hair dye base first preparation immediately after the passage of the above given period are shown in FIG. 1 to FIG. 3. […]

[2] = Stability test: remaining dye in liquid hair dye base first preparation by HPLC; format: physicochemical; settings: finding stated in text
Method: 50 g of a liquid hair dye base (Bigen Speedy Color, manufactured by Hoyu Co. Ltd.) was weighed into a separable flask, and 0.1 g of thioglycerol was added. After the above separable flask was purged with nitrogen gas, the whole was stirred under a flow of nitrogen gas. After the resultant was divided into 40 g each in a 100 ml shampoo bottle and purging with nitrogen gas was performed, the bottle was capped, thereby a liquid hair dye base first preparation being prepared.
The liquid hair dye base first preparation of Example 1 was stored in a constant-temperature tank set at room temperature or 40° C. for 30 days. This first preparation was used as a sample.
About 4 g of an acetonitrile solution containing 500 ppm of benzonitrile was placed in a 10 mL sample vial and then the amount was accurately measured. About 0.2 g of the above sample was added thereto and the amount was accurately measured, followed by thorough mixing. The liquid in the sample vial was sucked by means of a syringe and was placed in a vial under filtration. Then, it was analyzed by means of a column ODS-80A in high performance liquid chromatography (HP 1100 manufactured by Hewlett-Packard Company) to measure amounts of remaining dyes in the sample.
A liquid hair dye base first preparation was prepared by performing the same operations as in Example 1 except that thioglycolic acid was used instead of thioglycerol. […]

[3] = 0.1 ppm (0.00001 %) added, 1 Day
[4] = 0.1 ppm (0.00001 %) added, 2 Weeks
[5] = 0.1 ppm (0.00001 %) added, 4 Days
[6] = 1 ppm (0.0001 %) added, 2 Weeks
[7] = 10 ppm (0.001 %) added, 2 Weeks
[8] = 100 ppm (0.01 %) added, 2 Weeks
[9] = 1000 ppm (0.1 %) added, 2 Weeks

SMILES | Color tone ([1]; 0.0001 ppm added, 1 Day) | Color tone ([1]; 0.0001 ppm added, 2 Weeks) | Color tone ([1]; 0.0001 ppm added, 4 Days) | Color tone ([1]; 0.001 ppm added, 1 Day) | Color tone ([1]; 0.001 ppm added, 2 Weeks) | Color tone ([1]; 0.001 ppm added, 4 Days) | Color tone ([1]; 0.01 ppm added, 1 Day) | Color tone ([1]; 0.01 ppm added, 2 Weeks) | Color tone ([1]; 0.01 ppm added, 4 Days) | Color tone [1, 3] | Color tone [1, 4] | Color tone [1, 5] | Color tone ([1]; 1 ppm (0.0001 %) added, 1 Day) | Color tone [1, 6] | Color tone ([1]; 1 ppm (0.0001 %) added, 4 Days) | Color tone ([1]; 10 ppm (0.001 %) added, 1 Day) | Color tone [1, 7] | Color tone ([1]; 10 ppm (0.001 %) added, 4 Days) | Color tone ([1]; 100 ppm (0.01 %) added, 1 Day) | Color tone [1, 8] | further results
CC(C)=CCC/C(C)=C/CS [thiogeraniol, (E)-3,7-dimethyl-2,6-octadien-1-thiol] | black | brown | black | black | brown | black | black | brown | black | black | brown | black | black | brown | black | black | brown | black | black | brown | Color tone ([1]; 100 ppm (0.01 %) added, 4 Days): black; Color tone ([1]; 1000 ppm (0.1 %) added, 1 Day): brown; Color tone [1, 9]: brown; Color tone ([1]; 1000 ppm (0.1 %) added, 4 Days): black; Color tone ([1]; 10000 ppm (1 %) added, 1 Day): orange; Color tone ([1]; 10000 ppm (1 %) added, 2 Weeks): orange; Color tone ([1]; 10000 ppm (1 %) added, 4 Days): orange; concentration at which a stabilization effect was shown [1]: ≤ 0.0001 ppm
OCCS [thioglycol, 2-mercaptoethanol] | black | brown | black | black | brown | black | black | brown | black | black | brown | black | black | brown | black | black | brown | black | black | brown | Color tone ([1]; 100 ppm (0.01 %) added, 4 Days): black; Color tone ([1]; 1000 ppm (0.1 %) added, 1 Day): brown; Color tone [1, 9]: orange; Color tone ([1]; 1000 ppm (0.1 %) added, 4 Days): orange; Color tone ([1]; 10000 ppm (1 %) added, 1 Day): orange; Color tone ([1]; 10000 ppm (1 %) added, 2 Weeks): orange; Color tone ([1]; 10000 ppm (1 %) added, 4 Days): orange; concentration at which a stabilization effect was shown [1]: ≤ 0.0001 ppm
O=C(O)CS [thioglycolic acid] |  |  |  |  |  |  |  |  |  |  |  |  |  |  |  |  |  |  |  |  | effect on stability of p-nitro-o-phenylenediamine [2]: promotes the deterioration; effect on stability of resorcin [2]: promotes the deterioration
